# Biological target: human full-length MKNK1 (Homo sapiens (Human), UniProt Q9BUB5, T344D)
# Test: MKNK1 kinase high ATP assay (TR-FRET)
# Type: biochemical
# Conditions: 2 mM ATP, 15 min preincubation with enzyme, GST-MKNK1 (T344D)
# Procedure, shortened: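 GST-tagged full-length human MKNK1 (1-424, T344D, baculovirus-expressed) preincubated 15 min at 22 °C with compound, then reacted 30 min at 22 °C with 2 mM ATP and 0.06 μM biotinylated peptide (final) in HEPES pH 7.5. Phospho-substrate by TR-FRET (665/622 nm ratio), normalised to no-inhibitor and no-enzyme controls.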
# Chain of human full-length MKNK1 (Q9BUB5 other isoform, or with tags, fused parts or gaps T344D): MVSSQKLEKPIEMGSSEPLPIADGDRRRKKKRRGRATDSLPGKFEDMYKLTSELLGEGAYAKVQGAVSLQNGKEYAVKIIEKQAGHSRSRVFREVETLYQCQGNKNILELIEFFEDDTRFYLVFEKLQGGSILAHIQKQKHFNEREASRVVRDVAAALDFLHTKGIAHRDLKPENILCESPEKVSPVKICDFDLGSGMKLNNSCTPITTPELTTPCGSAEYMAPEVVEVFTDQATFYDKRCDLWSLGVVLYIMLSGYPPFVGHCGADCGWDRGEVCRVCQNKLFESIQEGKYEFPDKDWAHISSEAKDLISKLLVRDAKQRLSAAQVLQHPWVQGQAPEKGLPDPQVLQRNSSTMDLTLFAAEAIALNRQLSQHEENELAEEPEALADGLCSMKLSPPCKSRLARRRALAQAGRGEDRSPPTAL
row,Structure (SMILES),IC50
1,"Cc1cc(Nc2ncnc(NC(=O)C3CC3)n2)c(=O)n2c1C(=O)NC2(C)C [Example 40, N-[4-[(3,3,8-Trimethyl-1,5-dioxo-1,2,3,5-tetrahydroimidazo[1,5-a]pyridin-6-yl)amino]-1,3,5-triazin-2-yl]cyclopropanecarboxamide]",20.7 nM
2,"Cc1cc(Nc2ncnc3ccccc23)c(=O)n2c1C(=O)NC21CCCCC1 [Example 8, 8′-Methyl-6′-(quinazolin-4-ylamino)-2′H-spiro[cyclohexane-1,3′-imidazo[1,5-a]pyridine]-1′,5′-dione]",28.3 nM
3,"CC(=O)N1Cc2ncnc(Nc3cc(C)c4n(c3=O)C3(CCCCC3)NC4=O)c2C1 [Example 78, 6′-[(6-Acetyl-6,7-dihydro-5H-pyrrolo[3,4-d]pyrimidin-4-yl)amino]-8′-methyl-2′H-spiro[cyclohexane-1,3′-imidazo[1,5-a]pyridine]-1′,5′-dione]",37.9 nM
4,"Cc1cc(Nc2ncnc3sc(C(=O)O)c(C)c23)c(=O)n2c1C(=O)NC21CCC(F)(F)CC1 [Example 93, 4-[(4,4-Difluoro-8′-methyl-1′,5′-dioxo-1′,5′-dihydro-2′H-spiro[cyclohexane-1,3′-imidazo[1,5-a]pyridin]-6′-yl)amino]-5-methylthieno[2,3-d]pyrimidine-6-carboxylic acid]",42 nM
5,"Cc1cc(Nc2ncnc3sccc23)c(=O)n2c1C(=O)NC21CSC1 [Example 177, 8-methyl-6-[(thieno[2,3-d]pyrimidin-4-yl)amino]-2H-spiro[imidazo[1,5-a]pyridine-3,3′-thietane]-1,5-dione]",4.3 nM
6,"Cc1cc(Nc2ncnc3nc(CC(F)(F)F)[nH]c23)c(=O)n2c1C(=O)NC21CCCCC1 [Example 37, 8′-Methyl-6′-{[8-(2,2,2-trifluoroethyl)-7H-purin-6-yl]amino}-2′H-spiro[cyclohexane-1,3′-imidazo[1,5-a]pyridine]-1′,5′-dione]",10.3 nM
7,"Cc1ccc2c(Nc3cc(C)c4n(c3=O)C3(CCCCC3)NC4=O)ncnc2c1 [Example 121, 8′-Methyl-6′-[(7-methylquinazolin-4-yl)amino]-2′H-spiro[cyclohexane-1,3′-imidazo[1,5-a]pyridine]-1′,5′-dione]",7.1 nM
8,"Cc1cc(Nc2ncnc3sccc23)c(=O)n2c1C(=O)NC21CCCCC1 [Example 5, 8′-Methyl-6′-(thieno[2,3-d]pyrimidin-4-ylamino)-2′H-spiro[cyclohexane-1,3′-imidazo[1,5-a]pyridine]-1′,5′-dione]",6.4 nM
9,"Cc1cc(Nc2ncnc3scnc23)c(=O)n2c1C(=O)NC21CSC1 [Example 173, 8-methyl-6-[([1,3]thiazolo[5,4-d]pyrimidin-7-yl)amino]-2H-spiro[imidazo[1,5-a]pyridine-3,3′-thietane]-1,5-dione]",5.8 nM
10,"Cc1cc(Nc2ncnc3ccc(F)cc23)c(=O)n2c1C(=O)NC21CCCCC1 [Example 113, 6′-[(6-Fluoroquinazolin-4-yl)amino]-8′-methyl-2′H-spiro[cyclohexane-1,3′-imidazo[1,5-a]pyridine]-1′,5′-dione]",15.4 nM
11,"Cc1cc(Nc2ncnc3[nH]ccc23)c(=O)n2c1C(=O)NC21CCC1 [Example 148, 8′-Methyl-6′-(7H-pyrrolo[2,3-d]pyrimidin-4-ylamino)-2′H-spiro[cyclobutane-1,3′-imidazo[1,5-a]pyridine]-1′,5′-dione]",0.4 nM
12,"Cc1cc(Nc2ncnc3c2CN(S(C)(=O)=O)C3)c(=O)n2c1C(=O)NC21CCCCC1 [Example 69, 8′-methyl-6′-{[6-(methylsulfonyl)-6,7-dihydro-5H-pyrrolo[3,4-d]pyrimidin-4-yl]amino}-2′H-spiro[cyclohexane-1,3′-imidazo[1,5-a]pyridine]-1′,5′-dione]",144 nM
13,"Cc1cc(Nc2ncnc3sc(C(=O)N4CCC(N(C)C)CC4)cc23)c(=O)n2c1C(=O)NC21CCCCC1 [Example 14, 6′-[(6-{[4-(Dimethylamino)piperidin-1-yl]carbonyl}thieno[2,3-d]pyrimidin-4-yl)amino]-8′-methyl-2′H-spiro[cyclohexane-1,3′-imidazo[1,5-a]pyridine]-1′,5′-dione]",4.1 nM
